# Laboratory results as given in patent publication US20250288681A1, “SOLID COMPOSITIONS COMPRISING A GLUCOKINASE ACTIVATOR AND METHODS OF MAKING AND USING THE SAME” (vTv Therapeutics LLC, priority 2013, published 2025).
# Assay: stability of solid form (statement only)
# Assay type: physicochemical
# Conditions: qualitative statement, no data
row,Compound,stability
1,"CCCO[C@H]1CC[C@H](N(C(=O)Nc2ncc(SCC(=O)O)s2)C2CCCCC2)CC1 [UD1-FA, {2-[3-cyclohexyl-3-(trans-4-propoxy-cyclohexyl)-ureido]-thiazol-5-ylsulfanyl}-acetic acid]",greater stability relative to some of its pharmaceutically acceptable salts
2,"CCCO[C@H]1CC[C@H](N(C(=O)Nc2ncc(SCC(=O)O)s2)C2CCCCC2)CC1 [Form A, {2-[3-cyclohexyl-3-(trans-4-propoxy-cyclohexyl)-ureido]-thiazol-5-ylsulfanyl}-acetic acid]",particularly stable
